Data on 27 compounds can be found in patent publication US20250186410A1, “DUAL INHIBITORS OF TRYPTOPHAN DIOXYGENASES (IDO1 AND TDO) AND THEIR USE IN THERAPY” (ANTIDO THERAPEUTICS INTERNATIONAL SÀRL, priority 2022, published 2025).

Structures are written as SMILES.

Data set [1] in a line: MTT cell viability in the cellular IDO1/TDO experiments. The data set is classed as cell-based. Particulars: mouse, read-out: Cytotoxicity IC50. The procedure: The viability of the cells in each well in the same experiment was determined using the 3-(4,5-dimethylthiazolyl-2-yl)-2,5-diphenyltetrazolium bromide (MTT) colourimetric assay. After the removal of the supernatant for determination of IDO1 inhibition, the cells were incubated with MTT (500 μg/mL) until crystal formation was observed. Plates were centrifuged for 15 min at 2500 g, and then all the supernatant in then wells was discarded. DMSO (100 μL/well) was added to dissolve the crystals and then the absorbance in each well was measured at 570 nm. Cell viability in each well was expressed as a percentage of untreated controls. Triplicate cultures were used for all experiments unless stated otherwise.
The viability of the cells in each well in the same experiment was determined using the 3-(4,5-dimethylthiazolyl-2-yl)-2,5-diphenyltetrazolium bromide (MTT) colourimetric assay.

The target of data set [2] is human TDO (GL261 cells transfected to over-express full length human TDO) (Homo sapiens (Human), UniProt P48775). In words: Cell-based assay for TDO inhibition. Particulars: 24 h; read-out: Cellular TDO IC50. The procedure: Culture supernatant from each well was then transferred into a fresh, flat-bottomed 96-well plate, and kynurenine content was determined as described above for the IDO1 assay, and the concentration that inhibited 50% cellular enzyme activity was calculated.
Chain of human TDO (GL261 cells transfected to over-express full length human TDO) (P48775 whole entry): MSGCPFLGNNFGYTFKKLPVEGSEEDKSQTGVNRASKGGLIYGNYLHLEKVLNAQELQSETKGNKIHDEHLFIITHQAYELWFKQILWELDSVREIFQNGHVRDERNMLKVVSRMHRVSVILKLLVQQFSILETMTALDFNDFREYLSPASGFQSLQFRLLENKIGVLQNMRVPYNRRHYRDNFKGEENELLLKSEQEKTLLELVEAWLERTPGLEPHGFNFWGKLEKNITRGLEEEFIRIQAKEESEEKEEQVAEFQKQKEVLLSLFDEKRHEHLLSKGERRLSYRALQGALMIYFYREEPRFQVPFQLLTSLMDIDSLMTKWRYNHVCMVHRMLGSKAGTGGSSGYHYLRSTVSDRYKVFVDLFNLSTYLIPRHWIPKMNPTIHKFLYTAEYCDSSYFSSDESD

Data set [3] concerns the target Recombinant human IDO1 (rhIDO1) (Homo sapiens (Human), UniProt P14902). In words: Enzymatic assay for IDO1 activity. The data set is classed as biochemical. Particulars: read-out: Isolated IDO1 Enayme Assay IC50. The protocol:
Recombinant human IDO1 (rhIDO1) was expressed and purified from cultures of EC538 strain of E. coli transformed with pREP4 and pQE9-IDO plasmid. Reaction mixes were set up in 384-well microplates containing 50 mM phosphate buffer, 10 mM ascorbic, 10 μM methylene blue, 100 μg/mL catalase, 80 μM TRP, 0.01% Tween 20 (v/v) mixed with rhIDO1 (15 μL) at a final concentration of 9 nM in a total volume of 30 μL assay medium. The plates were incubated at 37° C. for 30 min, and the enzymatic reaction was terminated by adding piperidine (200 mM) and heated at 65° C. for 20 min. Fluorescence intensity was read at λex 400 nm and λem 500 nm. Test compounds were dissolved in 100% DMSO and pre-diluted in assay medium prior to adding rhIDO1. IDO1 inhibition (%) was calculated as
All experiments were carried out in triplicates, and statistical Analyses were conducted in Prism v5 (Graphpad Software, Inc., La Jolla, CA, USA).

The next data set deals with LLC-CR cells. Particulars: cited from earlier work.
Data set [4] concerns the target human IDO1 (LLTC-hIDO1 cells) (Homo sapiens (Human), UniProt P14902). In words: Cell-based assay for IDO1 inhibition. The note with it: 24 h; read-out: Cellular IDO1 IC50. The procedure:
Culture supernatant from each well was then transferred into a fresh, flat-bottomed 96-well plate, mixed with trichloroacetic acid (10% final concentration) and incubated for 20 min at 60° C. Plates were then centrifuged (10 min at 2500 g) and the supernatants were then transferred and mixed 1:1 with 4-(dimethylamino)benzaldehyde (20 mg/mL in acetic acid) in a new plate. The absorbance of each well was read at 480 nm, and the concentration that inhibited 50% cellular enzyme activity was calculated.

Chain of human IDO1 (LLTC-hIDO1 cells) (P14902 whole entry): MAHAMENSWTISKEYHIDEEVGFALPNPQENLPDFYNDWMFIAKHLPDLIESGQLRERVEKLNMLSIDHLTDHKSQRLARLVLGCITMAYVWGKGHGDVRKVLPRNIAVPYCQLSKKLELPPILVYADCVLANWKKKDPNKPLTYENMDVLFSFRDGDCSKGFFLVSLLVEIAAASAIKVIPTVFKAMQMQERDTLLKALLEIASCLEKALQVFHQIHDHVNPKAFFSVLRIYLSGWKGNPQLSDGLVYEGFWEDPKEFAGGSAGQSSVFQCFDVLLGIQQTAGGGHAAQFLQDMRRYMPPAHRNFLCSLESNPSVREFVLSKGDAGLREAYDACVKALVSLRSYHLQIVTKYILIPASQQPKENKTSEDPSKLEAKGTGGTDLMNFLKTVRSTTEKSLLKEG
Chain of Recombinant human IDO1 (rhIDO1) (P14902 whole entry): as above

Usually IC50 stands for the concentration that inhibits the measured activity by half. With `Cc1nc2onc(N)c2c(C)c1Cl` [Compound 3, 5-Chloro-4,6-dimethylisoxazolo[5,4-b]pyridin-3-amine], the IC50 at 24 h in data set [1] fell in the range of 10 to 100 µM. Moreover, the concentration for half-maximal inhibition (IC50) in data set [2] lay within 10 to 100 µM.

Take `Nc1noc2nc(-c3ccccc3)ccc12` [Compound 15, 6-Phenylisoxazolo[5,4-b]pyridin-3-amine]: the half-inhibitory concentration (IC50) at 24 h in data set [1] is over 100 µM. In addition, the figures for the IC50 in data set [2] and in data set [3] were 10 to 100 µM and over 100 µM, respectively.

In the case of `Nc1noc2nc(Cl)c(Cl)cc12` [Compound 67, 5,6-Dichloroisoxazolo[5,4-b]pyridin-3-amine], the concentration for half-maximal inhibition (IC50) at 24 h in data set [1] was over 100 µM. The half-maximal inhibitory concentration (IC50) in data set [2] was under 1 µM.

With `Cc1cc(C)c2c(N)noc2n1` [Compound 4, 4,6-Dimethylisoxazolo[5,4-b]pyridin-3-amine], the 50% inhibitory concentration (IC50) at 24 h in data set [1] was over 100 µM. Further, in data set [2], the IC50 lay in the range of 10 to 100 µM.

As for `Cc1cnc2onc(N)c2c1` [Compound 44, 5-Methylisoxazolo[5,4-b]pyridin-3-amine], in data set [1], the IC50 at 24 h was over 100 µM. Further, the 50% inhibitory concentration (IC50) is under 1 µM in data set [2] and over 100 µM in data set [3].

As to `Nc1noc2nc(Oc3ccc(OC(F)(F)F)cc3)ccc12` [Compound 89, 6-(4-(Trifluoromethoxy)phenoxy)isoxazolo[5,4-b]pyridin-3-amine], the IC50 at 24 h in data set [1] is over 100 µM.

As to `Nc1noc2nc3c(cc12)CCCC3` [Compound 10, 5,6,7,8-Tetrahydroisoxazolo[5,4-b]quinolin-3-amine], the IC50 at 24 h in data set [1] is over 100 µM. In addition, the IC50 in data set [2] was 10 to 100 µM; in data set [3], over 100 µM.

As to `N.N.O=C([O-])C1(C(=O)[O-])CCC1.[Pt+2]` [carboplatin], the “GI50 concentration in resistant clones” value in the data set with LLC-CR cells (LLC-CR cells) is 1.3 µg/mL. In addition, the “fold resistance of LLC-CR” value with LLC-CR cells (LLC-CR versus parental LLC) was 3-5 fold.

As to `Nc1noc2ncc(Br)cc12` [Compound 6, 5-Bromoisoxazolo[5,4-b]pyridin-3-amine], the IC50 at 24 h in data set [1] was over 100 µM. In addition, the IC50 in data set [2] is under 1 µM.

As to `Cc1cc2c(N)noc2nc1C` [Compound 45, 5,6-Dimethylisoxazolo[5,4-b]pyridin-3-amine], the IC50 at 24 h in data set [1] was over 100 µM. Further, the 50% inhibitory concentration (IC50) was 1 to 10 µM in data set [2] and over 100 µM in data set [3].

Regarding `Cc1nc2onc(N)c2c(C)c1Br` [Compound 1, 5-Bromo-4,6-dimethylisoxazolo[5,4-b]pyridin-3-amine], the IC50 at 24 h in data set [1] is over 100 µM. Besides, the IC50 in data set [2] is 10 to 100 µM.

As to `Nc1noc2ncc(I)cc12` [Compound 16, 5-Iodoisoxazolo[5,4-b]pyridin-3-amine], the IC50 at 24 h in data set [1] was over 100 µM. Also, the IC50 in data set [2] is under 1 µM.

Regarding `COc1ccc2c(N)noc2n1` [Compound 41, 6-Methoxyisoxazolo[5,4-b]pyridin-3-amine], in data set [1], the 50% inhibitory concentration (IC50) at 24 h is over 100 µM. In addition, the values for the IC50 in data set [4], in data set [2] and in data set [3] were 1 to 10 µM, 10 to 100 µM and over 100 µM, respectively.

On to `Nc1noc2ncc(F)cc12` [Compound 14, 5-Fluoroisoxazolo[5,4-b]pyridin-3-amine], for which the concentration for half-maximal inhibition (IC50) at 24 h in data set [1] is over 100 µM. Besides, the concentration for half-maximal inhibition (IC50) was 1 to 10 µM in data set [4], 1 to 10 µM in data set [2] and over 100 µM in data set [3].

Consider `Nc1noc2ncc(Cl)cc12` [Compound 8, 5-Chloroisoxazolo[5,4-b]pyridin-3-amine], for which the IC50 at 24 h in data set [1] was over 100 µM. The IC50 in data set [2] was under 1 µM.

As to `Cc1nc2onc(N)c2c(C)c1C` [Compound 5, 4,5,6-Trimethylisoxazolo[5,4-b]pyridin-3-amine], the IC50 at 24 h in data set [1] is over 100 µM. Moreover, the IC50 in data set [4] lay in the range of 1 to 10 µM; in data set [2], 10 to 100 µM.

As for `Cc1nc2onc(NC(=O)Nc3cccc(C(F)(F)F)c3)c2c(C)c1Cl` [Compound 15B, 1-(5-Chloro-4,6-dimethylisoxazolo[5,4-b]pyridin-3-yl)-3-(3-(trifluoromethyl)phenyl)urea], the IC50 at 24 h in data set [1] was over 100 µM. For the same compound, the IC50 in data set [4] is 1 to 10 µM; in data set [3], over 100 µM.

Regarding `Nc1noc2nc(-c3cccs3)ccc12` [Compound 74, 6-(2-Thienyl)isoxazolo[5,4-b]pyridin-3-amine], in data set [1], the half-inhibitory concentration (IC50) at 24 h was over 100 µM. Besides, the IC50 is 10 to 100 µM in data set [2] and over 100 µM in data set [3].

As for `Nc1noc2nc(C(F)(F)F)ccc12` [Compound 47, 6-(Trifluoromethyl)isoxazolo[5,4-b]pyridin-3-amine], in data set [1], the IC50 at 24 h is over 100 µM. The IC50 is 1 to 10 µM in data set [2] and under 1 µM in data set [3].

As for `Nc1noc2ncc([N+](=O)[O-])cc12` [Compound 49, 5-Nitroisoxazolo[5,4-b]pyridin-3-amine], the IC50 at 24 h in data set [1] was over 100 µM. Besides, the IC50 in data set [2] is under 1 µM.

Take `Nc1noc2nc(Cl)ccc12` [Compound 11, 6-Chloroisoxazolo[5,4-b]pyridin-3-amine]: the IC50 at 24 h in data set [1] was over 100 µM.

For `Nc1noc2nc(Oc3ccccc3Cl)ccc12` [Compound 84, 6-(2-Chlorophenoxy)isoxazolo[5,4-b]pyridin-3-amine], the IC50 at 24 h in data set [1] is over 100 µM. Moreover, the IC50 in data set [2] was 1 to 10 µM.

In the case of `Nc1noc2ncc(-c3ccccc3)cc12` [Compound 24, 5-Phenylisoxazolo[5,4-b]pyridin-3-amine], the half-maximal inhibitory concentration (IC50) at 24 h in data set [1] was over 100 µM. For the same compound, the 50% inhibitory concentration (IC50) is 10 to 100 µM in data set [4], 1 to 10 µM in data set [2] and over 100 µM in data set [3].

`Nc1noc2ncncc12` [Compound 12, Isoxazolo[5,4-d]pyrimidin-3-amine]: the IC50 at 24 h in data set [1] was over 100 µM. In addition, the figures for the IC50 in data set [2] and in data set [3] were 1 to 10 µM and over 100 µM, respectively.

As for `Nc1noc2nc3ccccc3cc12` [Compound 9, Isoxazolo[5,4-b]quinolin-3-amine], in data set [1], the IC50 at 24 h was in the range of 10 to 100 µM. Besides, the half-inhibitory concentration (IC50) in data set [2] was 1 to 10 µM.

Take `COc1cccc(Nc2ccc3c(N)noc3n2)c1` [Compound 95, N^6-(3-Methoxyphenyl)isoxazolo[5,4-b]pyridine-3,6-diamine]: the IC50 at 24 h in data set [1] is over 100 µM. The values for the 50% inhibitory concentration (IC50) in data set [4], in data set [2] and in data set [3] were 10 to 100 µM, 10 to 100 µM and over 100 µM, respectively.

On to `Cc1cc(Cl)nc2onc(N)c12` [Compound 42, 6-Chloro-4-methylisoxazolo[5,4-b]pyridin-3-amine], for which, in data set [1], the IC50 at 24 h is over 100 µM. In addition, the half-maximal inhibitory concentration (IC50) in data set [2] is 1 to 10 µM; in data set [3], under 1 µM.
